Laboratory results reported in patent US8796457B2, “Compound useful for the treatment of degenerative and inflammatory diseases” (Galapagos NV, priority 2009, dated 2014).
Like-named read-outs stand apart in the source and are kept apart here.

Assays:
[1] = system: MMP13 levels in SW1353 cells; experiment: OSM/IL-1β signaling assay (MMP13); type: cell-based; conditions: Homo sapiens, 25 ng/mL OSM and 1 ng/mL IL-1β, 48 hours, average ± standard error of the mean
From the text: 5% CO2. […] The data are expressed as the average EC50 from the assays±standard error of the mean.

[2] = target: T1, JAK2 (Homo sapiens (Human), UniProt O60674); experiment: JAK2 Ki determination assay (Ulight-JAK-1 peptide); type: biochemical; conditions: Lineweaver-Burk; Ulight-JAK-1 (Tyr1023) peptide, alternative protocol
T1 sequence (O60674 849-1124): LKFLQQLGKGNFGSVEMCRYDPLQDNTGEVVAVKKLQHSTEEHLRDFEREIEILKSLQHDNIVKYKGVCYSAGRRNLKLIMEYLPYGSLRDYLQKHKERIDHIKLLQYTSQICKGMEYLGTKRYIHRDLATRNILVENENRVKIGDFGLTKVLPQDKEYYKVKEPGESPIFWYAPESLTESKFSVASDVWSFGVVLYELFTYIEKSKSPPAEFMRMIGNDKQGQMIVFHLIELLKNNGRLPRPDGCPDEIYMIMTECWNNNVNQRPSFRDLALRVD
Procedure: Alternatively, for the determination of Ki, different amounts of inhibitor were mixed with the enzyme and the enzymatic reaction was followed as a function of ATP concentration. […] 0.0125 mU of JAK2 (Invitrogen, PV4210) was used in the assay. The substrate was 50 nM Ulight-JAK-1 (Tyr1023) Peptide (Perkin Elmer, TRF0121). The reaction was performed in 25 mM HEPES pH 7.0, 0.01% Triton X-100, 2 mM DTT, 7.5 mM MgCl2 with varying concentrations of ATP and compound. Phosphorylated substrate was measured using an Eu-labeled anti-phosphotyrosine antibody PT66 (Perkin Elmer, AD0068). Readout was performed on the envision (Perkin Elmer) with excitation at 320 nm and emission followed at 615 nm and 665 nm.

[3] = target: JAK3 (Homo sapiens (Human), UniProt P52333); experiment: JAK3 Ki determination assay; type: biochemical; conditions: Lineweaver-Burk; polyGT substrate, 33P readout
Sequence of JAK3 (P52333 whole entry): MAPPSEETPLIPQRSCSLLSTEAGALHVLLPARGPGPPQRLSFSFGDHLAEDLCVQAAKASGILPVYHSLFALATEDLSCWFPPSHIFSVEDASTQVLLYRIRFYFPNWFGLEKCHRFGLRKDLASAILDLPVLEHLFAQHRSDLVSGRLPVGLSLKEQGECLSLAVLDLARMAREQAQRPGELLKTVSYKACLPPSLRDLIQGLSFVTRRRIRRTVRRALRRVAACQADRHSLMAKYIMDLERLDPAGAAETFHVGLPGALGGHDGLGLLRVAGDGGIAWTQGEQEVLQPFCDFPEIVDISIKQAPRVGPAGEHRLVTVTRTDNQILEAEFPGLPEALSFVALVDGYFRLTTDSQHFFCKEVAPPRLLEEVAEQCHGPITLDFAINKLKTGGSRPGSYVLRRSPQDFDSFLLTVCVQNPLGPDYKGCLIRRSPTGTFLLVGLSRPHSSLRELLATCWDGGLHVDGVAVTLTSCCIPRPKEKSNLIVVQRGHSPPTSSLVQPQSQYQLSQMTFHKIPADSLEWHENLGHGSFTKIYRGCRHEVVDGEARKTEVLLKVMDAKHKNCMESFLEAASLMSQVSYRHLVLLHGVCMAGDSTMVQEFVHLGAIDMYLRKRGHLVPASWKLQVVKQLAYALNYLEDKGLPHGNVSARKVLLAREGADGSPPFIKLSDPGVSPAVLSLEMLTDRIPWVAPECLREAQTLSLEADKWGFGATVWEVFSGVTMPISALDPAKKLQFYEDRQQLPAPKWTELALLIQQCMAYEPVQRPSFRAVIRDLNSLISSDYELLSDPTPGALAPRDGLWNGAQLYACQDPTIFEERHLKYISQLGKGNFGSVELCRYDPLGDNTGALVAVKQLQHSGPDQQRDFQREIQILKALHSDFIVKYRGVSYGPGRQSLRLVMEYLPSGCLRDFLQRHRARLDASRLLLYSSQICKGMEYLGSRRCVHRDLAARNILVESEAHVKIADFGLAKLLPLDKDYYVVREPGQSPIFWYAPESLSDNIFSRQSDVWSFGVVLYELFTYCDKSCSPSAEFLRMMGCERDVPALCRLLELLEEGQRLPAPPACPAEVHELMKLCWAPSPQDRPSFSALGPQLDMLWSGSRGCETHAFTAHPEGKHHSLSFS
From the text: For the determination of Ki, different amounts of inhibitor were mixed with the enzyme and the enzymatic reaction was followed as a function of ATP concentration.

[4] = target: T1, JAK2; experiment: JAK2 Ki determination assay (polyGT, 33P filter plate); type: biochemical; conditions: Lineweaver-Burk; polyGT substrate, 33P readout
From the text: For the determination of Ki, different amounts of inhibitor were mixed with the enzyme and the enzymatic reaction was followed as a function of ATP concentration. […] 0.025 mU of JAK2 (Invitrogen, PV4210) was used in the assay.

[5] = target: Recombinant human JAK3 catalytic domain (Homo sapiens (Human), UniProt P52333); experiment: JAK3 inhibition assay; type: biochemical; conditions: average ± standard error of the mean; 1 μM ATP
Sequence of Recombinant human JAK3 catalytic domain (P52333 781-1124): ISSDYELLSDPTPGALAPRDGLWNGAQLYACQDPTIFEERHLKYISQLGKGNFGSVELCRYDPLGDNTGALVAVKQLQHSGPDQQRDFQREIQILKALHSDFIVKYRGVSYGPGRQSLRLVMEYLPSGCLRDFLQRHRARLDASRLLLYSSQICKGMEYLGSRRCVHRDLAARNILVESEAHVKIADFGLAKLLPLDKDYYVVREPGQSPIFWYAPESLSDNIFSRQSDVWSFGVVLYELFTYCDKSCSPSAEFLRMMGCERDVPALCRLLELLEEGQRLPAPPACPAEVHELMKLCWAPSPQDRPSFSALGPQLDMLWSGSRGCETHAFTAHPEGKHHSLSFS
Procedure: Recombinant human JAK3 catalytic domain (amino acids 781-1124; catalog number PV3855) was purchased from Invitrogen. 0.025 mU of JAK3 was incubated with 2.5 μg polyGT substrate (Sigma catalog number P0275) in kinase reaction buffer (25 mM Tris pH 7.5, 0.5 mM EGTA, 0.5 mM Na3VO4, 5 mM b-glycerolphosphate, 0.01% Triton X-100, 1 μM non-radioactive ATP, 0.25 μCi ^33P-gamma-ATP (GE Healthcare, catalog number AH9968) final concentrations) with or without 5 μL containing test compound or vehicle (DMSO, 1% final concentration), in a total volume of 25 μL, in a polypropylene 96-well plate (Greiner, V-bottom). After 105 min at 30° C., reactions were stopped by adding of 25 μL/well of 150 mM phosphoric acid. […] 40 μL/well of Microscint-20 was added, the top of the plates was sealed and readout was performed using the Topcount (Perkin Elmer). Kinase activity was calculated by subtracting counts per minute (cpm) obtained in the presence of a positive control inhibitor (10 μM staurosporine) from cpm obtained in the presence of vehicle. The ability of a test compound to inhibit this activity was determined as: Percentage inhibition=((cpm determined for sample with test compound present−cpm determined for sample with positive control inhibitor) divided by (cpm determined in the presence of vehicle−cpm determined for sample with positive control inhibitor))*100. […]

[6] = system: JAK1 dependent pathway (IFNα induced pSTAT1) in human whole blood; experiment: Whole blood assay, IFNα stimulation, Phospho-STAT1 ELISA; type: cell-based; conditions: for IC50: Homo sapiens, 6 blood donors, ± SEM, read-out: pIC50 for inhibiting the INFα induced increase of pSTAT1 levels (converted)
Procedure: The pH of the buffer was 7.3.
Proteinase inhibitors were added to the buffer before use.
The stock solution was stored at −20° C.
Human blood was collected in heparinized tubes. The blood was divided in aliquots of 392 μL.
The samples were incubated on ice for 15 min.
The cellular extracts were thawed on ice. […] The strips were incubated overnight at 4° C.
Absorbance was measured at 450 nm.

[7] = target: JAK1 (Homo sapiens (Human), UniProt P23458); experiment: JAK1 Ki determination assay (Ulight-JAK-1 peptide); type: biochemical; conditions: Lineweaver-Burk; Ulight-JAK-1 (Tyr1023) peptide, alternative protocol
Sequence of JAK1 (P23458 866-1154): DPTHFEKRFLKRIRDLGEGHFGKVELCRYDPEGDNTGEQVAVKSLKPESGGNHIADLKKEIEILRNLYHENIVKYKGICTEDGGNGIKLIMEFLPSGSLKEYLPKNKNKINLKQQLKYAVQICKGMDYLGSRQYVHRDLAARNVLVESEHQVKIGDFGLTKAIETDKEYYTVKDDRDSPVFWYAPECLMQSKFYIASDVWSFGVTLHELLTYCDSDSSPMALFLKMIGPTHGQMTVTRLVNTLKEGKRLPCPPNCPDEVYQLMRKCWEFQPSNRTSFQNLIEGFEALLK
Procedure: Alternatively, for the determination of Ki, different amounts of inhibitor were mixed with the enzyme and the enzymatic reaction was followed as a function of ATP concentration. The Ki was determined by means of double reciprocal plotting of Km vs compound concentration (Lineweaver-Burk plot). 1 ng of JAK1 (Invitrogen, PV4774) was used in the assay. The substrate was 50 nM Ulight-JAK-1 ([MUT]) Peptide (Perkin Elmer, TRF0121) The reaction was performed in 25 mM MOPS pH 6.8, 0.01%, 2 mM DTT, 5 mM MgCl2 Brij-35 with varying concentrations of ATP and compound. Phosphorylated substrate was measured using an Eu-labeled anti-phosphotyrosine antibody PT66 (Perkin Elmer, AD0068). Readout was performed on the envision (Perkin Elmer) with excitation at 320 nm and emission followed at 615 nm and 665 nm.

[8] = system: JAK2-dependent pathway (GM-CSF stimulated STAT5 phosphorylation, CD14+ cells) in human whole blood; experiment: Whole blood assay, GM-CSF stimulation, Phospho-STAT5 FACS; type: cell-based; conditions: mean of 3 healthy volunteers, read-out: pIC50 in the inhibition of STAT5 phosphorylation (converted)
Procedure: A flow cytometry analysis was also performed to establish compound selectivity for JAK1 over JAK2, ex vivo using human whole blood.
The increase in phosphorylation of STAT5 by GM-CSF in monocytes was measured using an anti phospho-STAT5 antibody by FACS.
Remaining diluted Lyse/Fix buffer was discarded.
10 μg rhGM-CSF (AbCys S.A., Cat N°P300-03) was dissolved in 100 μl of PBS 0.1% BSA to obtain a 100 μg/ml stock solution. The stock solution was stored aliquoted at −80° C.
Control-treated samples received DMSO without any test compound.
Human blood was collected in heparinized tubes.
50,000 total events were counted and Phospho-STAT5 positive cells were measured after gating on CD14+ cells.

CC1(C)CN(C(=O)c2ccc(-c3cccc4nc(NC(=O)C5CC5)nn34)cc2)C1 [Compound 1, Cyclopropanecarboxylic acid{5-[4-(3,3-dimethyl-azetidine-1-carbonyl)-phenyl]-[1,2,4]triazolo[1,5-a]pyridin-2-yl}-amide]
EC50 [1]: 4200 ± 2370 nM
Ki [2]: 35 nM
Ki [3]: 188 nM
Ki [4]: 126 nM
IC50 [5]: 408 ± 62 nM
IC50 ([6]; additional data analysis protocol (R2 > 0.8, hill slope < 3)): 617 nM
IC50 ([6]; human whole blood): 479 nM
selectivity for the JAK1 pathway versus the JAK2 pathway ([6]; IFNα pSTAT1 vs GM-CSF IL-8, human whole blood): 28 fold
selectivity for the JAK1 pathway versus the JAK2 pathway ([6]; additional data analysis protocol, IFNα pSTAT1 vs GM-CSF IL-8): 17.6 fold
Ki [7]: 5.6 nM
IC50 [8]: 4270 nM
